Laboratory results published in patent publication US20240000827A1, “COMPOSITIONS COMPRISING METHYL CYCLODEXTRINS FOR THE TREATMENT AND/OR PREVENTION OF HEPATIC STEATOSIS” (ROQUETTE FRERES, priority 2020, published 2024).

How the values were obtained:
Assay type in all cases: in vivo, Golden Syrian hamster
[1] = tested on: genes involved in de novo lipodogenesis, de novo cholesterol synthesis and cholesterol removal; assay: Example 2: messenger RNA expressed in the liver; conditions: liver mRNA at end of study
Description: (§1) Male LVG golden Syrian hamsters were used for the studies below. The base feed consisted of the food AO4C sold by the company SAFE diet. In the hypercholesterol diets, cholesterol was added (provided by MP Biomedicals)
(§2) Different cyclodextrins were tested • firstly, hydroxypropyl-β-cyclodextrin (HPBCD) sold by the Applicant under the name “KLEPTOSE® HPB” (oral grade); • secondly, methyl-β-cyclodextrin (MCD) “KLEPTOSE® CRYSMEB”, owned by the Applicant.
(§3) In this study, 40 Golden Syrian origin LVG hamsters were divided into 4 groups of 10 and subjected for 6 weeks to the following diets: • “Control” group: normal diet • “Control HC” group: hypercholesterol diet (containing 2.5% by weight of cholesterol) • “HC+Crysmeb” group: hypercholesterol diet (containing 2.5% by weight of cholesterol)+3% by weight of Crysmeb (MCD) • “HC+HPBCD” group: hypercholesterol diet (containing 2.5% by weight of cholesterol)+3% by weight of HPBCD.
The levels of expression of different genes involved in de novo lipodogenesis (FIG. 3) and in de novo cholesterol synthesis (FIG. 5) and cholesterol removal (FIG. 6) were measured in the liver at the end of the study, in the 4 groups of animals.

[2] = Example 2 preventive effect model: plasma triglyceride levels
Description: as §1, §2, §3

[3] = Example 2 preventive effect model: body weight and organ weights; conditions: hypercholesterol diet (2.5% cholesterol) + 3% by weight cyclodextrin in feed, end of 42 days, N=10
Description: as §1, §2, §3
At the end of 42 days of study, the animals were sacrificed and the weight of the various organs was measured.

[4] = tested on: Golden Syrian origin LVG hamsters; assay: Example 2 preventive effect model: biochemical data measured in the liver (lipid storage); conditions: end of the 42 days of treatment, HC diet + 3% cyclodextrin
Description: as §1, §2, §3
Table 3 provides the biochemical data measured in the liver of the animals at the end of the 42 days of treatment.

## CC(O)COC[C@H]1O[C@@H]2O[C@H]3[C@H](O)[C@@H](O)[C@@H](O[C@H]4[C@H](O)[C@@H](O)[C@@H](O[C@H]5[C@H](O)[C@@H](O)[C@@H](O[C@H]6[C@H](O)[C@@H](O)[C@@H](O[C@H]7[C@H](O)[C@@H](O)[C@@H](O[C@H]8[C@H](O)[C@@H](O)[C@@H](O[C@H]1[C@H](O)[C@H]2O)O[C@@H]8COCC(C)O)O[C@@H]7COCC(C)O)O[C@@H]6COCC(C)O)O[C@@H]5COCC(C)O)O[C@@H]4COCC(C)O)O[C@@H]3COCC(C)O (stereo partly drawn) [HPBCD, hydroxypropyl-β-cyclodextrin]
[1]; FIG. 3
  expression of genes involved in de novo lipogenesis (FAS, ACC, SCD1, SREBP1): inhibition of the expression of the SCD1 and ACC genes
[1]; FIG. 5
  expression of genes involved in de novo cholesterol synthesis (SREB2, CYP51a1, HMGCR): little effect
[2]; day 0 (beginning of study), HC diet + 3% cyclodextrin
  plasma triglyceride level TG D0 (Average): 3.03
[2]; day 14, HC diet + 3% cyclodextrin
  plasma triglyceride level TG D14 (Average): 1.28
[2]; day 28, HC diet + 3% cyclodextrin
  plasma triglyceride level TG D28 (Average): 1.23
[2]; day 43 (end of study), HC diet + 3% cyclodextrin
  plasma triglyceride level TG D43 (Average): 1.58
[3]
  weight of the adipose tissue of epididymis (Average): 1.4
  weight of the liver (Average): 4.5
[4]
  % lipids (g of lipid in liver/animal) (Average): 1.04 g of lipid in liver/animal
  % lipids (g/100 g of liver) D0 (Average): 23.02 g/100 g of liver
  CHOL (mg of chol in liver/animal) (Average): 154.19 mg of chol in liver/animal
  CHOL (mg/g liver) (Average): 32.98 mg/g liver
  TG (mg of TG in liver/animal) (Average): 92.12 mg of TG in liver/animal
  TG (mg/g liver) (Average): 22.73 mg/g liver
